How the values were obtained:
liverwort = test: Liverwort control by spraying; type: in vivo; conditions: for contribution to phytotoxicity, in words: liverwort; for liverwort control, in words: sprayed on liverwort
Description: The sinalbin had been hydrolyzed to undetectable levels.

[1] = system: weeds, vegetative cover, wheat, cotton; conditions: cited from earlier work
potato sprouting = conditions: in vivo; cited from earlier work

SMILES: OCc1ccc(O)cc1 [4-hydroxybenzyl alcohol]
- contribution to phytotoxicity, in words (liverwort): primary phytotoxic compounds
- contribution to phytotoxicity, in words (liverwort; listed as 4-OH benzyl alcohol): more phytotoxic that SCN^−
- liverwort control, in words (liverwort): did not control the liverwort as effectively as applying the extract

SMILES: N#CCc1ccc(O)cc1 [4-hydroxyphenyl acetonitrile]
- contribution to phytotoxicity, in words (liverwort): primary phytotoxic compounds
- contribution to phytotoxicity, in words (liverwort; listed as nitrile): much more phytotoxic than SCN^−
- liverwort control, in words (liverwort): did not control the liverwort as effectively as applying the extract

SMILES: N#CS [SCN^−, ionic thiocyanate]
- rate causing inhibition of wheat germination ([1]; effect no longer observed at 69 days post application): 342 kilograms SCN^−/ha
- rate necessary for complete plant kill for 4 months ([1]; in vivo): 1,366 kg SCN^−/ha
- rate removing a large percentage of the weeds ([1]; in vivo): 137 kilograms SCN^−/ha
- rate at which cotton defoliation was possible ([1]; solutions sprayed directly on vegetative growth): 8.6 kilograms SCN^−/ha
- contribution to phytotoxicity, in words (liverwort): minor contributor

SMILES: N.N#CS [ammonium thiocyanate (NH4SCN), ammonium thiocyanate]
- effect on potato sprouting, in words (potato sprouting): promote potato sprouting

SMILES: N#C[S-].[K+] [potassium thiocyanate (KSCN), potassium thiocyanate]
- effect on potato sprouting, in words (potato sprouting): promote potato sprouting

SMILES: N#C[S-].[Na+] [sodium thiocyanate (NaSCN), sodium thiocyanate]
- effect on potato sprouting, in words (potato sprouting): promote potato sprouting

Source: US10588321B2, “Method for using mustard meal or an extract thereof” (University of Idaho, priority 2015, dated 2020)
